The values below come from US11241385B2, “Topical composition and method for treating and preventing atopic dermatitis and infections related to bacteria biofilm” (Johnson & Johnson Consumer Inc., priority 2017, dated 2022).

In assay [1] the test system is Staphylococcus Epidermidis biofilms. In words: Biofilm growth inhibition, wells method (inhibition halos). As to conditions: S. Epidermidis. In kind it is cell-based. Here is the method:
(§1) 1.3.3 Biofilm Growth Inhibition, Wells Method.
(§2) Protocol disclosed by Hui Zhang was adapted as follow: • a—100 μL of a bacterial strains culture (DO580=0.5) is spread on a LB culture plate. • b—5 mm diameter wells are created with a punch in the gel surface of the culture plate. Each well is attributed to one formulation, the same formulation throughout the test. • c—50 μL of tested formulation is injected per well. • d—24 hours incubation at 37° C. • e—Wells are emptied from the formulations. • f—Growth inhibition halos are measured. • g—Repeat from step c to obtain data over several days (8 days in the present case).
(§3) Tests were conducted on biofilms according to the methodology disclosed on paragraph 1.3.3 (Wells). A 10% solution of Triton X-100 (Aldrich) was submitted to the same test, results after 2 days were used as references.
(§4) Inhibition halos were measured and compared to the inhibition halo obtained for the Triton X-100 solution after 2 days. Inhibition halo differences are expressed in %. Over 100% the inhibition is higher than what is observed for Triton at 2 days; under 100% the inhibition is lower than what is observed for Triton at 2 days. Inhibition was measured at 2 days and 8 days.

In assay [2] the test system is Staphylococcus aureus biofilms. Described as above. In kind it is cell-based. To be noted: S. Aureus. How it is done:
as §1, §2, §3, §4

Assay [3] concerns Staphylococcus aureus biofilms. In words: Biofilm growth, crystal violet method. In kind it is cell-based, Staphylococcus Aureus MFP03. As to conditions: S. aureus, absorbance 550 nm. Here is the method:
1.3.2 Biofilm Growth, Crystal Violet Method
Experiments on biofilm growth were performed according to the protocol disclosed in G. A. O'Toole, Microtiter Dish Biofilm Formation Assay, J Vis Exp. 2011; (47): 2437. The protocol disclosed by G. A. O'Toole teaches the assay on Pseudomonas aeruginosa, it was adapted to Staphylococcus Aureus MFP03 and Staphylococcus Epidermis MFP04.
Two conditions were studied: • The effect of the emulsions on biofilms in formation: the emulsions are added to the medium from the beginning of the bacterial growth. • The effect of emulsions on established biofilms: the emulsions are added to the bacteria after a first 24-hour incubation that allowed the development of the biofilm.
The protocol taught by G. A. O'Toole is as follows:
1. Grow a culture of the wild-type Pseudomonas aeruginosa or mutant strain overnight in a rich medium (i.e. LB)
2. […] For quantitative assays, we typically use 4-8 replicate wells for each treatment. […] Quantifying the Biofilm 1. […] Quantify absorbance in a plate reader at 550 nm using 30% acetic acid in water as the blank. For the conditions of biofilms in formation: emulsions at 10% (w/w) are added to the medium, and after 24 h of incubation, the optical density is measured. […] Optical density is then measured. Results are expressed in percentage of absorbance relative to the control sample, which is the biofilm itself. […]

For Triton X-100, the “Growth inhibition % (halo), relative to Triton X-100 at 2 days” value worked out at 100% in assay [1] (2 days), 231% in assay [1] (8 days), 100% in assay [2] (2 days) and 198.5% in assay [2] (8 days). The “Absorbance percentage relative to the control (the biofilm itself), established biofilm” value in assay [3] (after 24 h biofilm growth medium replaced for 4 hours by emulsion) turned out to be 177%. Moreover, the “Absorbance percentage relative to the control (the biofilm itself), biofilm in formation” value in assay [3] (emulsion at 10% (w/w) in medium from start, 24 h incubation) is reported as 27%.
